Experimental data published in PMC6980506, “Comparative pharmacokinetics and pharmacodynamics of the advanced Retinol-Binding Protein 4 antagonist in dog and cynomolgus monkey” (PLoS ONE, 2020).
Where two headings read alike, the source gives them in different places.

How the values were obtained:
[1] = design: method as in PMID 26181715; details: rat liver microsomes; cited from earlier work
bisretinoid synthesis = tested on: bisretinoid synthesis; design: method as in PMID 29871924; details: Abca4-/- mouse model of Stargardt disease; cited from earlier work
[2] = Single dose pharmacokinetic study in cynomolgus monkey; format: in vivo
Protocol: Pharmacokinetic studies were conducted in male beagle dogs and male cynomolgus monkeys at SRI International, Menlo Park, CA. General procedures for animal care and housing were in accordance with the National Research Council (NRC) Guide for the Care and Use of Laboratory Animals (1996) and the Animal Welfare Standards incorporated in 9 CFR Part 3, 1991 and complied with guidelines set forth by the ARVO Animal Statement for the Use of Animals in Ophthalmic and Vision Research. During the course of the PK experiments, cynomolgus monkeys were individually housed in stainless steel primary enclosures in an AAALAC-accredited facility. Animals were fed a commercial monkey chow, and supplemental food was provided (fresh fruits, vegetables, seeds, and nuts). Reverse osmosis-purified drinking water was available at all times. Cynomolgus monkeys were maintained on a 12:12 hour light:dark cycle at the 64–84°F temperature and 30–70% humidity. Monkeys had access to enrichment opportunities (grooming devices, foraging devices, activity panels and mirrors) and were provided auditory stimuli and human interaction enrichment throughout the study. Blood samples were collected by venipuncture of a peripheral vein. Animals were acclimated to the squeeze back mechanism in their home cage by repeated, short periods of restraint during general husbandry procedures for at least 2 weeks prior to dosing. Animal were not removed from their cages for collection, and no anesthesia/analgesic agents were used for blood collection. […] For PK experiments, beagle dogs were individually housed in enclosed run (≥ 4 ft x 6 ft). Dogs were exposed to their daily ration of food, Harlan Teklad 2025C Certified Global 25% Protein Dog Diet. Water was provided from the public water supply (municipal tap water) ad libitum. Dogs were maintained on a 12:12 hour light:dark cycle at the 72–73°F temperature and 40–71% humidity. Every effort was made to minimize, if not eliminate, pain and suffering in all animals in this study. No restraining devices were used in blood collecting procedures. Dogs were gentle hand-held to restrain by trained technicians with the dogs foreleg extended for sample collection of blood from cephalic vein. Animals were awake during blood sample collection with no anesthesia/analgesic agents used, and positive reinforcement by the technician was provided following collection. […] All dogs were released back to the colony after the study was completed. Male beagle dogs and male cynomolgus monkey received a single i.v. dose of a test compound at 0.5 mg kg^−1 (dog) and 1 mg kg^−1 (monkey) or a single p.o. dose of a test compound of at 2 mg kg^−1 (dog) and 5 mg kg^−1 (monkey). The number of animals that was used in PK experiments is 3 per study group. Intravenous administration vehicle was 3% DMA/45% PEG300/12% ethanol/40% sterile water; p.o. vehicle was 2% Tween 80 in 0.9% saline. […] Blood samples were processed to plasma. Following protein extraction with acetonitrile, compound concentrations in plasma were measured by LC-MS/MS. The plasma drug level data were analyzed using WinNonlin software package; Model 201 (for i.v. bolus administration);was used for the analysis of i.v. data, and Model 200 (for extravascular administration) was used for the analysis of the p.o. data. Aliquots of pre-dose plasma samples, as well as aliquots of plasma PK samples, were used for the analysis of the plasmabiomarker, RBP4.
Administration to Non-Human Primates
II. MATERIALS AND METHODS

[3] = Cyno, 5.0 mg kg^−1 p.o., mean ± SD, n=3
[4] = male, cynomolgus monkey, plasma, iv, 1 mg/kg, non-human primate, iv 1.0 mg/kg, read-out: Plasma level, Individual animals
[5] = male, cynomolgus monkey, plasma, iv, 1 mg/kg, non-human primate, iv 1.0 mg/kg, read-out: Plasma level, Mean
[6] = male, cynomolgus monkey, plasma, po, 5 mg/kg, non-human primate, po 5 mg/kg, read-out: Plasma level, Individual animals
[7] = male, cynomolgus monkey, plasma, po, 5 mg/kg, non-human primate, po 5 mg/kg, read-out: Plasma level, Mean

- %F, bioavailability ([2]; Cyno, 5.0 mg kg^−1 p.o. vs 1.0 mg kg^−1 i.v.): 84.3 ± 24.8%
- AUCinf [2, 3]: 826.6 ± 243.1 µg·h/mL
- Cmax [2, 3]: 31500 ± 200 ng/mL
- AUC(0-inf) ([2]; male, cynomolgus monkey, plasma, iv, 1 mg/kg, Cyno, 1.0 mg kg^−1 i.v., mean ± SD, n=3): 196 ± 42.2 µg·h/mL
- Cmax ([2]; male, cynomolgus monkey, plasma, iv, 1 mg/kg, Cyno, 1.0 mg kg^−1 i.v., mean ± SD, n=3, read-out: Cmax, maximum observed concentration at first time point): 11400 ± 600 ng/mL
- concentration at 0.0083 hr [2, 4]: 10900 ng/mL
- concentration at 0.0083 hr [2, 5]: 11400 ng/mL
- concentration at 0.25 hr ([2]; male, cynomolgus monkey, plasma, iv, 1 mg/kg, non-human primate, iv 1.0 mg/kg, 0.25 hr, read-out: Plasma level, Individual animals): 10500 ng/mL
- concentration at 0.25 hr ([2]; male, cynomolgus monkey, plasma, iv, 1 mg/kg, non-human primate, iv 1.0 mg/kg, 0.25 hr, read-out: Plasma level, Mean): 10700 ng/mL
- concentration at 0.5 hr [2, 4]: 9300 ng/mL
- concentration at 0.5 hr [2, 5]: 9570 ng/mL
- concentration at 1 hr [2, 4]: 9470 ng/mL
- concentration at 1 hr [2, 5]: 9060 ng/mL
- concentration at 2 hr [2, 4]: 8910 ng/mL
- concentration at 2 hr [2, 5]: 8080 ng/mL
- concentration at 4 hr [2, 4]: 7450 ng/mL
- concentration at 4 hr [2, 5]: 7080 ng/mL
- concentration at 8 hr [2, 4]: 6160 ng/mL
- concentration at 8 hr [2, 5]: 5890 ng/mL
- concentration at 12 hr [2, 4]: 4470 ng/mL
- concentration at 12 hr [2, 5]: 4780 ng/mL
- concentration at 24 hr [2, 4]: 2840 ng/mL
- concentration at 24 hr [2, 5]: 2930 ng/mL
- concentration at 36 hr ([2]; male, cynomolgus monkey, plasma, iv, 1 mg/kg, non-human primate, iv 1.0 mg/kg, 36 hr, read-out: Plasma level, Mean): 1670 ng/mL
- concentration at 48 hr ([2]; male, cynomolgus monkey, plasma, iv, 1 mg/kg, non-human primate, iv 1.0 mg/kg, 48 hr, read-out: Plasma level, Mean): 1050 ng/mL
- AUC(0-t) ([2]; male, cynomolgus monkey, plasma, iv, Cyno, 1.0 mg kg^−1 i.v., mean ± SD, n=3): 171 ± 27 µg·h/mL
- clearance ([2]; male, cynomolgus monkey, plasma, iv, Cyno, 1.0 mg kg^−1 i.v., mean ± SD, n=3, read-out: CL, total body clearance (converted)): 5.25 mL/h/kg
- half-life ([2]; male, cynomolgus monkey, plasma, iv, Cyno, 1.0 mg kg^−1 i.v., mean ± SD, n=3, read-out: T1/2, apparent terminal half-life (converted)): 15.6 ± 3.3 h
- Vd ([2]; male, cynomolgus monkey, plasma, iv, Cyno, 1.0 mg kg^−1 i.v., mean ± SD, n=3, read-out: Vss, volume of distribution at steady state): 0.113 ± 0.004 L/kg
- bioavailability ([2]; male, cynomolgus monkey, plasma, oral, 5 mg kg^−1, Cyno, 5.0 mg kg^−1 p.o. vs 1.0 mg kg^−1 i.v., read-out: %F, bioavailability): ~84%
- AUC(0-inf) ([2]; male, cynomolgus monkey, plasma, po, 5 mg/kg, Cyno, 5.0 mg kg^−1 p.o., mean ± SD, n=3): 676 µg·h/mL
- Cmax ([2]; male, cynomolgus monkey, plasma, po, 5 mg/kg, Cyno, 5.0 mg kg^−1 p.o., mean ± SD, n=3, read-out: Cmax): 31400 ng/mL
- concentration at 0.25 hr ([2]; male, cynomolgus monkey, plasma, po, 5 mg/kg, non-human primate, po 5 mg/kg, 0.25 hr, read-out: Plasma level, Individual animals): 9720 ng/mL
- concentration at 0.25 h ([2]; male, cynomolgus monkey, plasma, po, 5 mg/kg, non-human primate, po 5 mg/kg, 0.25 hr, read-out: Plasma level, Mean): 11100 ng/mL
- concentration at 0.5 h [2, 6]: 28100 ng/mL
- concentration at 0.5 h [2, 7]: 22200 ng/mL
- concentration at 1 hr [2, 6]: 24600 ng/mL
- concentration at 1 hr [2, 7]: 29800 ng/mL
- concentration at 2 hr [2, 6]: 32400 ng/mL
- concentration at 2 hr [2, 7]: 31200 ng/mL
SMILES: Cc1cc(C(=O)O)nc(N2C[C@H]3C[C@@H](c4ccccc4C(F)(F)F)C[C@H]3C2)n1 [BPN-14136]
- stability in liver microsomes, % remaining at 30 min [1]: > 90%
- bisretinoid synthesis (bisretinoid synthesis): significantly inhibited bisretinoid synthesis
